# In patent US10906905B2, “Five-membered heteroaryl ring bridged ring derivative, preparation method therefor and medical use thereof” (Jiangsu Hengrui Medicine Co., Ltd., priority 2016, dated 2021):
# Columns and labels:
# [1] = biological target: recombinant human VEGFR2 enzyme (Homo sapiens (Human), UniProt P35968); assay: Inhibition of VEGFR2 kinase activity (Z'-LYTE Kinase Assay Kit); assay type: biochemical; conditions: ATP 50 μM; read-out: IC50 of inhibition effect on VEGFR2 kinase activity
# Chain of recombinant human VEGFR2 enzyme (P35968 20-1356): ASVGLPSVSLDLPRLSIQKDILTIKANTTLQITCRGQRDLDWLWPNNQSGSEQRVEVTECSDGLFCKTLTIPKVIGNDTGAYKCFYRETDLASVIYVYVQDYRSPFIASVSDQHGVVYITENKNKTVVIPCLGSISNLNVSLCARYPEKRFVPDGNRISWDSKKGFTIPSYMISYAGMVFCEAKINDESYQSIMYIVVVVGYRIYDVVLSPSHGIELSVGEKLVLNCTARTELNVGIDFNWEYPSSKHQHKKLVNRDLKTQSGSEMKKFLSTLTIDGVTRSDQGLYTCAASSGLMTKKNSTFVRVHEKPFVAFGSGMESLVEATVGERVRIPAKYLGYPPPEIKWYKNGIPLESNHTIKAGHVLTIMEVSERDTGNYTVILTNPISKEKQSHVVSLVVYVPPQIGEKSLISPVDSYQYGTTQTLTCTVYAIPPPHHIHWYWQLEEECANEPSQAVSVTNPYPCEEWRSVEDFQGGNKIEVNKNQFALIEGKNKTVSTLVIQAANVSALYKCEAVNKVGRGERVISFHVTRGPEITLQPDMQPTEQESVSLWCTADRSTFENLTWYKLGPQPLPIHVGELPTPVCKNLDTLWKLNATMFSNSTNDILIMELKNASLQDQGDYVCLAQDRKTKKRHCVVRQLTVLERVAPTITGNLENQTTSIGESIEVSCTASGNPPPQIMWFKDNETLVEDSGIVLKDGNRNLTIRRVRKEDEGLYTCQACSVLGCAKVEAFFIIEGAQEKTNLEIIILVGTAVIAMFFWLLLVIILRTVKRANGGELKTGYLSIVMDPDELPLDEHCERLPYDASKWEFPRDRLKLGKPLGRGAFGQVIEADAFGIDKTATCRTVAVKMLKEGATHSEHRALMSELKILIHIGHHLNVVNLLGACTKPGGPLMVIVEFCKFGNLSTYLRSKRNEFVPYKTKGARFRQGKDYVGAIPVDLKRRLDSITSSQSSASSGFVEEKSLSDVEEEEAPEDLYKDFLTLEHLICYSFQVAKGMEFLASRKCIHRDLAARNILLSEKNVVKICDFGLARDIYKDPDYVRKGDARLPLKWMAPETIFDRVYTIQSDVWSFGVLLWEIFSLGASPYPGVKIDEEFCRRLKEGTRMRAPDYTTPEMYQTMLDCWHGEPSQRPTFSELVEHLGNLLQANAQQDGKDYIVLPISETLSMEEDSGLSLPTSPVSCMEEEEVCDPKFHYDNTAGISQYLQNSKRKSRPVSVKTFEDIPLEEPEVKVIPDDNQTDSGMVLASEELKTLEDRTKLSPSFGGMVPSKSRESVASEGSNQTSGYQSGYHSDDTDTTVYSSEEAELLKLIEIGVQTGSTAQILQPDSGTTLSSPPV
# Experimental: The inhibition effect of VEGFR2 kinase activity in vitro was determined by the following method.
# The inhibition effect of the compounds of the present invention on VEGFR2 kinase activity was determined by the following experimental method:
# After reaction at 25° C. for 2 hours, 5 μL of detection reagent was added to each well. […] The IC50 values of the compounds for enzyme inhibition were calculated using Graphpad prism software based on each concentration of the compound and the corresponding signal value thereof.
# p38α kinase = p38α kinase (Homo sapiens (Human), UniProt Q16539); assay: Inhibition of p38α kinase activity (p38α kinase assay kit, ADP-Glo); assay type: biochemical; conditions: ATP 50 μM; read-out: IC50 of inhibition effect on p38α kinase activity
# Chain of p38α kinase (Q16539 whole entry): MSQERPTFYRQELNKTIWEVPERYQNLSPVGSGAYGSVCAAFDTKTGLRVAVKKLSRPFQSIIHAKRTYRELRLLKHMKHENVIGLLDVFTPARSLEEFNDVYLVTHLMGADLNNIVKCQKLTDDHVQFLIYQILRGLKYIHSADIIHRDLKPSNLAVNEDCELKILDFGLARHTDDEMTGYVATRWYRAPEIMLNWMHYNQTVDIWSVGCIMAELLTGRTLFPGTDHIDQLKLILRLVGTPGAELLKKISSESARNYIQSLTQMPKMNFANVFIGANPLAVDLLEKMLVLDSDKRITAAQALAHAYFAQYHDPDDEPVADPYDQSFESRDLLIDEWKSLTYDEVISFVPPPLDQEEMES
# Experimental: The inhibition of p38α kinase activity in vitro was determined by the following method.
# The inhibition effect of the compounds of the present invention on p38a kinase activity was determined by the following experimental method:
# (§1) p38α kinase assay kit (V9591, Promega) was used to assay enzyme activity. 2 μl of enzyme solution (the final concentration of enzyme in the reaction system was 0.5 ng/μL) formulated with reaction buffer (40 mM Tris pH 7.5, 20 mM MgCl2, 0.1 mg/ml BSA), 1 μl of a 3-fold gradient dilution of the compounds dissolved in 5% DMSO, and 2 μl of a mixed solution of ATP and p38 substrate peptide (the final concentration of ATP was 50 μM, and the final concentration of substrate was 0.2 μg/μL) were added successively to a 384-well plate (4514, Corning). After reaction at 27° C. for 2.5 hours, 5 μl of ADP-Glo solution in the kit was added to each well, then the plate was placed at 27° C. for 40 minutes. 10 μl of kinase assay reagent was then added to each well, then the plate was placed at 27° C. for 30 minutes. The chemiluminescence signal values were measured with a Victor 3 (PerkinElmer) multi-function microplate reader. The IC50 values of the compounds on enzyme inhibition were calculated using Graphpad prism software based on each concentration of the compound and the corresponding signal value thereof.
# [2] = tested on: Smad signaling pathway of TGFβRI; assay: Inhibition of Smad signaling pathway of TGFβRI (3TP-lux luciferase reporter in HepG2 cell); assay type: cell-based; conditions: Homo sapiens; HepG2 cell, 3TP-lux plasmid, 18 hours; read-out: IC50 on the inhibition of Smad signaling pathway of TGFβRI
# Experimental: The inhibition effect of the compounds of the present invention on Smad signaling pathway of TGFβRI was determined by the following in vitro test.
# The inhibition effect of the compounds of the present invention on Smad signaling pathway of TGFβRI was determined by the following experimental method:
# The seeding density is 2.5×10^4 cells/well. The cells were incubated overnight at 37° C., 5% CO2. Each well was replaced with fresh EMEM medium containing 10% FBS. […] The cells were further incubated for 24 hours at 37° C., 5% CO2. Each well was replaced with 90 μL of EMEM medium containing 0.5% FBS, then the cells were starved for 6 hours. The compounds were formulated as a 20 mM stock solution, which was diluted in gradient to a 400× concentration with 100% DMSO, and further 40-fold diluted with EMEM containing 0.5% FBS. The cell culture plate was taken out, then 10 μl of diluted compound or control (0.25% DMSO) was added to each well respectively. The plate was shaken gently, then incubated for 18 hours in an incubator at 37° C., 5% CO2. Finally, 100 μl of detection reagent ONE-Glo™ Luciferase Assay (E6110, Promega) was added to each well, and the plate was placed in dark at room temperature for 10 minutes. The chemiluminescence signal values were measured with a Victor 3.0 (PerkinElmer). The IC50 values of the compounds were calculated using Graphpad Prism software based on each concentration of the compound and the corresponding signal value thereof.
# TGFβRI kinase ALK5 = TGFβRI kinase ALK5 (Homo sapiens (Human), UniProt P36897); assay: Inhibition of TGFβRI kinase ALK5 activity (TGFβRI kinase assay kit, ADP-Glo); assay type: biochemical; conditions: ATP 50 μM; read-out: IC50 of inhibition effect on TGFβRI kinase ALK5 activity
# Chain of TGFβRI kinase ALK5 (P36897 34-503): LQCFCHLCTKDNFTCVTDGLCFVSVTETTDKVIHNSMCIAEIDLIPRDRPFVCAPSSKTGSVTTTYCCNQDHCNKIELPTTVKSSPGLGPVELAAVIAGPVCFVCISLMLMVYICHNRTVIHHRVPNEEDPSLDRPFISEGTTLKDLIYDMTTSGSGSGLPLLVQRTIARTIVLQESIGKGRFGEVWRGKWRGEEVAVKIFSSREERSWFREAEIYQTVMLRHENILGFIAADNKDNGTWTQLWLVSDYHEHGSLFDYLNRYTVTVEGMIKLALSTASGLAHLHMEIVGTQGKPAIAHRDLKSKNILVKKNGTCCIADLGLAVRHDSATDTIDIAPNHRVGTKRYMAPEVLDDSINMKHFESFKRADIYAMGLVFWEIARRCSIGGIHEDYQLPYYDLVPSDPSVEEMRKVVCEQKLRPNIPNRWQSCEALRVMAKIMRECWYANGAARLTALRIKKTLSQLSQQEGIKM
# Experimental: The inhibition effect of TGFβRI kinase activity in vitro was determined by the following method.
# The inhibition effect of the compounds of the present invention on TGFβRI kinase ALK5 activity was determined by the following experimental method:
# as §1, with “TGFβRI kinase” for “p38α kinase”, “kit (V4093,” for “kit (V9591,”, “was 2” for “was 0.5”, “and TGFβRI” for “and p38”, “compounds for” for “compounds on”
# NIH3T3 cell = assay: Inhibition of NIH3T3 cell proliferation (CellTiter-Glo); assay type: cell-based; conditions: Mus musculus, 72 hours, 0.5% FBS
# Experimental: The inhibition effect of the compounds of the present invention on NIH3T3 cell proliferation was determined by the following in vitro test.
# The inhibition effect of the compounds of the present invention on NIH3T3 cell proliferation was determined by the following experimental method:
# On a 96-well white plate with transparent bottom (3903, Corning), 100 μL of NIH3T3 cell (GNM6, Cell Bank of Typical Culture Collection Committee of Chinese Academy of Sciences) was seeded in a DMEM medium containing 10% FBS in each well. The seeding density is 2000 cells/well. The cells were incubated overnight at 37° C., 5% CO2. After overnight incubation, each well was replaced with 90 μL of DMEM medium containing 0.5% FBS. 10 μl of a 3-fold gradient dilution of the compounds with DMEM medium containing 0.5% FBS was then added, and the plate was incubated for 72 hours in a cell incubator at 37° C., 5% CO2. Finally, 50 μL of CellTiter-Glo (G7573, Promega) was added to each well. After incubation for 10 minutes at room temperature, the chemiluminescence signal values were measured with a Victor 3 microplate reader (PerkinElmer). The IC50 values of the compounds were calculated using Graphpad Prism software based on each concentration of the compound and the corresponding signal value thereof.
Structure (SMILES),IC50 [1],IC50 (p38α kinase),IC50 [2],IC50 (TGFβRI kinase ALK5),IC50 (NIH3T3 cell)
"Cc1cccc(-c2nc3n(c2-c2ccnc(-c4ccc(C(N)=O)cc4)c2)C2CCC3C2)n1 (stereo not shown) [Example 4, 4-(4-(2-(6-Methylpyridin-2-yl)-5,6,7,8-tetrahydro-5,8-methanoimidazo[1,2-a]pyridin-3-yl)pyridin-2-yl)benzamide]",4060 nM,638 nM,86 nM,29 nM,
"Cc1cccc(-c2nc3n(c2-c2ccnc(NCCN4CCOCC4)c2)[C@H]2CC[C@@H]3C2)n1 [Example 16-1, 4-((5S,8R)-2-(6-Methylpyridin-2-yl)-5,6,7,8-tetrahydro-5,8-methanoimidazo[1,2-a]pyridin-3-yl)-N-(2-morpholinoethyl)pyridin-2-amine]",> 10000 nM,,,77 nM,
"Cc1cccc(-c2nn3c(c2-c2ccc4nccc(C(N)=O)c4c2)C2CCC3CC2)n1 [Example 36, 6-(2-(6-Methylpyridin-2-yl)-4,5,6,7-tetrahydro-4,7-ethanopyrazolo[1,5-a]pyridin-3-yl)quinoline-4-carboxamide]",1010 nM,598 nM,18 nM,21 nM,
"Cn1cc(-c2cc(-c3c(-c4ccc(F)cn4)nc4n3[C@H]3CC[C@@H]4C3)ccn2)cn1 [Example 40-1, (5S,8R)-2-(5-Fluoropyridin-2-yl)-3-(2-(1-methyl-1H-pyrazol-4-yl)pyridin-4-yl)-5,6,7,8-tetrahydro-5,8-methanoimidazo[1,2-a]pyridine]",2080 nM,1360 nM,18 nM,10 nM,42 nM
"CS(=O)(=O)c1ccc(-c2cc(-c3c(-c4ccc(F)cn4)nc4n3[C@H]3CC[C@@H]4C3)ccn2)cc1 [Example 42-1, (5S,8R)-2-(5-Fluoropyridin-2-yl)-3-(2-(4-(methylsulfonyl)phenyl)pyridin-4-yl)-5,6,7,8-tetrahydro-5,8-methanoimidazo[1,2-a]pyridine]",9740 nM,7780 nM,31 nM,,
"Cc1cccc(-c2nc3n(c2-c2ccnc(-c4ccc(S(C)(=O)=O)cc4)c2)[C@@H]2CC[C@H]3C2)n1 [Example 3-2, (5R,8S)-2-(6-Methylpyridin-2-yl)-3-(2-(4-(methylsulfonyl)phenyl)pyridin-4-yl)-5,6,7,8-tetrahydro-5,8-methanoimidazo[1,2-a]pyridine]",928 nM,654 nM,31 nM,23 nM,
